Assays:
[1] = system: FU-OV-1 (Ovarian Carcinoma); assay: Bliss excess, mean over the matrix (fraction); higher = more synergy
How it was run: (§1)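 Bliss excess equals the observed combination effect minus the expected value EA + EB − EA·EB, where EA and EB are the effects of each agent alone. Combination Emax is the second-highest inhibition within the matrix. Inhibition was scaled from CellTiter-Glo 2.0 luminescence, with 0 set by vehicle wells and 1 by blank wells, after 72 hours of two-drug dosing of cells plated in 1536-well plates.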

[2] = system: TC-YIK (Other Solid Carcinomas); assay: as above
How it was run: as §1

[3] = system: HLE (Hepatocellular Carcinoma); assay: combination Emax (second highest fraction inhibited in the dose matrix, 72 h); higher = more inhibition; extreme values may be limits of the assay
How it was run: as §1

[4] = system: D-283MED (Other Solid Carcinomas); assay: as above
How it was run: as §1

[5] = system: FU-OV-1 (Ovarian Carcinoma); assay: as above
How it was run: as §1

[6] = system: DOK (Oral Cavity Carcinoma); assay: as above
How it was run: as §1

[7] = system: MEG-01 (Chronic Myelogenous Leukemia); assay: as above
How it was run: as §1

[8] = system: TC-YIK (Other Solid Carcinomas); assay: as above
How it was run: as §1

[9] = system: D-392MG (Glioblastoma); assay: as above
How it was run: as §1

[10] = system: KG-1 (Acute Myeloid Leukemia); assay: as above
How it was run: as §1

[11] = system: HCT-116 (Colorectal Carcinoma); assay: as above
How it was run: as §1

[12] = system: HCC-827 (Lung Adenocarcinoma); assay: as above
How it was run: as §1

[13] = system: HCC1143 (Breast Carcinoma); assay: as above
How it was run: as §1

[14] = system: SK-MEL-1 (Melanoma); assay: as above
How it was run: as §1

[15] = system: SW948 (Colorectal Carcinoma); assay: as above
How it was run: as §1

[16] = system: SK-UT-1 (Other Solid Carcinomas); assay: as above
How it was run: as §1

Row | Compound | Bliss excess [1] | Bliss excess [2] | combination Emax [3] | combination Emax [4] | combination Emax [5] | combination Emax [6] | combination Emax [7] | combination Emax [8] | combination Emax [9] | combination Emax [10] | combination Emax [11] | combination Emax [12] | combination Emax [13] | combination Emax [14] | combination Emax [15] | combination Emax [16]
1 | COc1nnc2ccc(N3CCC(c4ccc(OCCN5CCN(C)C(=O)[C@H]5C)cc4)CC3)nn12 [AZD5153] + C[C@@H]1COCCN1C2=NC(=NC(=C2)C3(CC3)[S@](=N)(=O)C)C4=C5C=CNC5=NC=C4 [AZD6738] (first compound max 1 µM, 7x7, partner max 10 µM) | -0.0452 | -0.0626 | 0.689 | 0.995 | 0.744 | 0.569 | 0.966 | 0.965 | 0.514 | 0.905 | 0.88 | 0.578 | 0.824 | 0.689 | 0.675 | 0.925
2 | Cc1nc(Nc2ncc(C(=O)Nc3c(C)cccc3Cl)s2)cc(N2CCN(CCO)CC2)n1 [Dasatinib] + CC(=O)Nc1cccc(-n2c(=O)n(C3CC3)c(=O)c3c(Nc4ccc(I)cc4F)n(C)c(=O)c(C)c32)c1 [Trametinib] (first compound max 2 µM, 7x7, partner max 1 µM) |  | 0.0746 | 0.414 | 0.419 |  | 0.904 | 1 | 0.638 | 0.627 | 0.419 | 0.979 | 0.947 | 0.657 | 0.854 | 0.764 | 0.344
3 | C[C@@H](c1ccc2nccn2c1)n1nnc2ncc(-c3cnn(C)c3)nc21 [Savolitinib] + CC1(C)CCC(CN2CCN(c3ccc(C(=O)NS(=O)(=O)c4ccc(NCC5CCOCC5)c([N+](=O)[O-])c4)c(Oc4cnc5[nH]ccc5c4)c3)CC2)=C(c2ccc(Cl)cc2)C1 [Venetoclax] (first compound max 1 µM, 7x7, partner max 1 µM) | -0.0389 | -0.0506 | 0.155 | 0.126 | 0.2 | 0.116 | 0.0651 | 0.108 | 0.266 | 0.38 | 0.114 | 0.266 | 0.29 | 0.158 | 0.166 | 0.149
4 | CS(=O)(=O)CCNCc1ccc(-c2ccc3ncnc(Nc4ccc(OCc5cccc(F)c5)c(Cl)c4)c3c2)o1 [Lapatinib] + NC1(c2ccc(-c3nc4ccn5c(=O)[nH]nc5c4cc3-c3ccccc3)cc2)CCC1 [MK-2206] (first compound max 10 µM, 7x7, partner max 10 µM) | 0.0239 | -0.014 | 0.597 | 0.96 | 0.751 | 0.935 | 0.904 | 0.944 | 0.189 |  | 0.891 |  | 0.89 | 0.888 | 0.655 | 0.636
5 | NC1(C(=O)N[C@@H](CCO)c2ccc(Cl)cc2)CCN(c2ncnc3[nH]ccc23)CC1 [Capivasertib] + CC(=O)c1c(C)c2cnc(Nc3ccc(N4CCNCC4)cn3)nc2n(C2CCCC2)c1=O [Palbociclib] (first compound max 10 µM, 7x7, partner max 10 µM) | -0.0388 | -0.048 | 0.164 | 0.634 | 0.236 | 0.596 | 0.468 | 0.44 | 0.436 | 0.398 | 0.782 | 0.344 | 0.498 | 0.141 | 0.57 | 0.458
6 | COc1nnc2ccc(N3CCC(c4ccc(OCCN5CCN(C)C(=O)[C@H]5C)cc4)CC3)nn12 [AZD5153] + C=CCn1c(=O)c2cnc(Nc3ccc(N4CCN(C)CC4)cc3)nc2n1-c1cccc(C(C)(C)O)n1 [AZD1775] (first compound max 1 µM, partner max 1 µM) | 0.0138 | -0.0712 | 0.61 | 0.988 | 0.631 | 0.658 | 0.945 | 0.935 | 0.497 | 0.861 | 0.788 | 0.583 | 0.677 | 0.568 | 0.655 | 0.787
7 | C=CCn1c(=O)c2cnc(Nc3ccc(N4CCN(C)CC4)cc3)nc2n1-c1cccc(C(C)(C)O)n1 [AZD1775] + C1CN(CCC1(C(=O)N[C@@H](CCO)C2=CC=C(C=C2)Cl)N)C3=NC=NC4=C3C=CN4 [Capivasertib] (first compound max 3 µM, partner max 3 µM) | -0.0615 | -0.0543 | 0.858 | 0.904 | 0.565 | 0.754 | 0.965 | 0.895 | 0.42 | 0.852 | 0.667 | 0.655 | 0.771 | 0.336 | 0.799 | 0.817
8 | Cn1cnc2c(F)c(Nc3ccc(Br)cc3Cl)c(C(=O)NOCCO)cc21 [Selumetinib] + CCN(CCO)CCCOc1ccc2c(Nc3cc(CC(=O)Nc4cccc(F)c4)[nH]n3)ncnc2c1 [AZD2811] (first compound max 10 µM, 7x7, partner max 1 µM) | 0.0176 | -0.0495 | 0.235 | 0.476 | 0.405 | 0.633 | 0.788 | 0.874 | 0.197 | 0.392 | 0.792 | 0.277 | 0.409 | 0.863 | 0.785 | 0.328
9 | CN(C)CCCOc1ccc(-c2ccc3ncc4c(c3c2)n(C2CCOCC2)c(=O)n4C)cn1 [AZD0156] + O=C(c1cc(Cc2n[nH]c(=O)c3ccccc23)ccc1F)N1CCN(C(=O)C2CC2)CC1 [Olaparib] (first compound max 3 µM, partner max 3 µM) | -0.0526 | 0.102 | 0.335 | 0.557 | 0.211 | 0.361 | 0.156 | 0.379 | 0.131 | 0.336 | 0.281 | 0.325 | 0.203 | 0.0982 | 0.252 | 0.257
10 | COc1nnc2ccc(N3CCC(c4ccc(OCCN5CCN(C)C(=O)[C@H]5C)cc4)CC3)nn12 [AZD5153] + CC1(C)CCC(CN2CCN(c3ccc(C(=O)NS(=O)(=O)c4ccc(NCC5CCOCC5)c([N+](=O)[O-])c4)c(Oc4cnc5[nH]ccc5c4)c3)CC2)=C(c2ccc(Cl)cc2)C1 [Venetoclax] (first compound max 1 µM, 7x7, partner max 1 µM) | -0.0369 | -0.0716 | 0.336 | 0.835 | 0.631 | 0.431 | 0.889 | 0.862 | 0.45 | 1 | 0.666 | 0.348 | 0.357 | 0.625 | 0.513 | 0.543
11 | COc1nnc2ccc(N3CCC(c4ccc(OCCN5CCN(C)C(=O)[C@H]5C)cc4)CC3)nn12 [AZD5153] + Cc1c2c(nn1C)CSCc1cc(n(C)n1)CSc1cc(c3ccccc3c1)OCCCc1c(C(=O)O)n(C)c3c-2c(Cl)ccc13 [AZD5991] (first compound max 1 µM, 7x7, partner max 1 µM) | 0.0022 | -0.0146 | 0.626 | 0.979 | 0.835 | 0.914 | 0.961 | 0.98 | 0.541 | 1 | 0.716 | 0.366 | 0.565 | 0.679 | 0.573 | 0.653
12 | Cc1nc(-c2cn3c(n2)-c2ccc(-c4cnn(C(C)(C)C(N)=O)c4)cc2OCC3)n(C(C)C)n1 [Taselisib] + O=C(Nc1ccc2[nH]nc(-c3ccncc3)c2c1)[C@@H]1CCN(CC(=O)N2CCN(c3ccc(-c4ncccn4)cc3)CC2)C1 [SCH772984] (first compound max 10 µM, 7x7, partner max 5 µM) | -0.0373 | 0.0859 | 0.33 | 0.775 | 0.727 | 1 | 0.954 | 0.661 | 0.799 |  | 1 |  |  | 0.893 | 0.964 | 0.485
13 | CS(=O)(=O)CCNCc1ccc(-c2ccc3ncnc(Nc4ccc(OCc5cccc(F)c5)c(Cl)c4)c3c2)o1 [Lapatinib] + Cn1cnc2c(F)c(Nc3ccc(Br)cc3Cl)c(C(=O)NOCCO)cc21 [Selumetinib] (first compound max 10 µM, 7x7, partner max 10 µM) | -0.0698 | 0.0665 | 0.234 | 0.935 | 0.55 | 0.933 | 0.644 | 0.531 | 0.396 |  | 0.775 |  |  | 0.838 | 0.774 | 0.501
14 | CC1(C)CCC(CN2CCN(c3ccc(C(=O)NS(=O)(=O)c4ccc(NCC5CCOCC5)c([N+](=O)[O-])c4)c(Oc4cnc5[nH]ccc5c4)c3)CC2)=C(c2ccc(Cl)cc2)C1 [Venetoclax] + C[C@@H]1COCCN1C2=NC(=NC(=C2)C3(CC3)[S@](=N)(=O)C)C4=C5C=CNC5=NC=C4 [AZD6738] (first compound max 1 µM, 7x7, partner max 10 µM) | -0.0444 |  | 0.642 | 0.954 | 0.485 | 0.414 | 0.883 |  | 0.339 | 0.917 | 0.671 | 0.33 | 0.821 | 0.391 | 0.595 | 0.895
15 | CC1(C)CCC(CN2CCN(c3ccc(C(=O)NS(=O)(=O)c4ccc(NCC5CCOCC5)c([N+](=O)[O-])c4)c(Oc4cnc5[nH]ccc5c4)c3)CC2)=C(c2ccc(Cl)cc2)C1 [Venetoclax] + CCN(CCO)CCCOc1ccc2c(Nc3cc(CC(=O)Nc4cccc(F)c4)[nH]n3)ncnc2c1 [AZD2811] (first compound max 1 µM, 7x7, partner max 1 µM) | -0.0705 |  | 0.416 | 0.778 | 0.238 | 0.313 | 0.799 |  | 0.217 | 0.84 | 0.456 | 0.254 | 0.318 | 0.292 | 0.799 | 0.561

Reference: the supplement of paper PMC11061612
